Like-named read-outs stand apart in the source and are kept apart here.
Experiments:
[1] = test system: passive cutaneous anaphylaxis (PCA) reaction; assay: Inhibiting effect on a 48 hour PCA reaction (test method for compound prepared in Example 1); format: in vivo, male Wistar strain rats; details: dye leakage
Method: (§1) Eight-weeks old male Wistar strain rats were immunized by subcutaneously injecting 0.05 ml of 50-fold diluted DNP-Ascaris antiserum (titer=1:64) at four positions on the dorsum. Forty-eight hours after the immunization, 1 ml of a 0.5% Evans blue solution containing 1 mg of DNP-Ascaris antigen was administered into a tail vein to induce a PCA reaction. Thirty minutes after the induction, the rats were bled to death and blue circular parts appearing at the immunized positions were excised. The dye was extracted from the blue circular parts with ethyl acetate and the amount of the dye leakage was determined. A test substance was suspended in a 0.5% CMC-Na solution and administered orally to each rat 1 hour before the induction.
(§2) Using a reference group to which only a 0.5% CMC-Na solution was administered orally, a reference value for the amount of dye leakage was obtained. The percent inhibition was determined as 100% when the amount of dye leakage was zero and as 0% when the amount of dye leakage was equal to the reference value. On the basis of these criteria, the percent inhibition of each test substance was calculated at varying doses.

[2] = test system: picryl chloride-induced type IV allergy; assay: Inhibiting effect on a picryl chloride-induced type IV allergy (1-aryluracil derivatives); format: in vivo, male ICR strain mice; details: Mus musculus, po, read-out: Percent Inhibition; for inhibition in vivo at 100 mg/kg: 100 mg/kg orally twice (just after induction and 16 hours after)
Method: (§3) The abdomen of 6-weeks old male ICR strain mice was shaven and 0.1 ml of a 7% picryl chloride solution in acetone was applied to the epithelium of the abdomen for immunization. After one week, 5 μl of a 1% picryl chloride solution in olive oil was applied to both sides of the left auricula to induce an allergy reaction. A given amount of a test substance was suspended in a 0.5% CMC-Na solution and the resulting suspension was administered orally to each mouse twice, i.e., just after the induction and 16 hours after. The thickness of the left auricula was measured both before the induction and 24 hours after.
as §2, with “The difference between the thickness of the left auricula before the induction and the value measured 24 hours after was calculated as the increase in thickness. Using” for “Using”, “increase in thickness” for “amount of dye leakage”

[3] = Toxicity Test (Experimental Example 1, 1-aryluracil derivatives); format: in vivo, male SD rats; details: 1,000 mg/kg orally once a day for 2 consecutive weeks
Method: (§4) A test substance was suspended in a 0.5% CMC-Na solution and administered orally to 6-weeks old male SD rats once a day at a dose of 1,000 mg/kg for 2 consecutive weeks. The weight of each rat was measured both before the administration and every day during the administration. A given amount of blood was collected on the day after the end of the administration period and examined. Collected urine was also examined. In addition, organs were checked for any aberrations by autopsy.

[4] = test system: passive cutaneous anaphylaxis (PCA) reaction; assay: Inhibiting effect on a 48 hour PCA reaction (test method for compound prepared in Example 22); format: in vivo, male Wistar strain rats; details: 100 mg/kg orally 30 minutes before the induction; dye leakage
Method: as §1, with “0.1” for “0.05”, “700-fold” for “50-fold”, “(titer=1:1024)” for “(titer=1:64)”, “two” for “four”, “pedal” for “tail”, “at a dose of 100 mg/kg 30 minutes” for “1 hour”
as §2

[5] = test system: picryl chloride-induced type IV allergy; assay: Inhibiting effect on a picryl chloride-induced type IV allergy (3-arylpurine derivatives); format: in vivo, male ICR strain mice; details: left auricula thickness at 24 hours
Method: as §3
as §2, with “The difference between the thickness of the left auricula before the induction and the value measured 24 hours after was calculated as the increase in thickness. Using” for “Using”, “increase in thickness” for “amount of dye leakage”

[6] = Toxicity Test (Experimental Example 2, 3-arylpurine derivatives); format: in vivo, male SD rats; details: 1,000 mg/kg orally once a day for 2 consecutive weeks
Method: as §4

[7] = 10 mg/kg orally twice (just after induction and 16 hours after), left auricula thickness at 24 hours
[8] = left auricula thickness at 24 hours
[9] = 10 mg/kg orally twice (just after induction and 16 hours after)
[10] = 100 mg/kg orally twice (just after induction and 16 hours after)

For Cn1c(=O)c(NC(=O)c2cc(C(C)(C)C)c(O)c(C(C)(C)C)c2)c(N)n(-c2ccccc2)c1=O [Example 1, 6-Amino-5-(3,5-di-tert-butyl-4-hydroxyphenyl)carboxyamido-3-methyl-1-phenyluracil], the “Percent Inhibition” value ([1]; 3 mg/kg orally 1 hour before the induction) was 33%, the “Percent Inhibition” value ([1]; 30 mg/kg orally 1 hour before the induction) was 49% and the inhibition in vivo at 10 mg/kg [2, 7] was 54%.
For Cn1c(=O)c(NC(=O)c2cc(C(C)(C)C)c(O)c(C(C)(C)C)c2)c(N)n(-c2ccc(F)cc2)c1=O [Example 2, 6-Amino-5-(3,5-di-tert-butyl-4-hydroxyphenyl)carboxyamido-1-(4-fluorophenyl)-3-methyluracil], the inhibition in vivo at 3 mg/kg ([2]; 3 mg/kg orally twice (just after induction and 16 hours after), left auricula thickness at 24 hours) was 38%.
Cc1ccc(-n2c(N)c(NC(=O)c3cc(C(C)(C)C)c(O)c(C(C)(C)C)c3)c(=O)n(C)c2=O)cc1 [Example 3, 6-Amino-5-(3,5-di-tert-butyl-4-hydroxyphenyl)carboxyamido-3-methyl-1-(4-methylphenyl)uracil] showed an inhibition in vivo at 10 mg/kg [2, 7] of 33%.
In the case of COc1ccc(-n2c(N)c(NC(=O)c3cc(C(C)(C)C)c(O)c(C(C)(C)C)c3)c(=O)n(C)c2=O)cc1 [Example 4, 6-Amino-5-(3,5-di-tert-butyl-4-hydroxyphenyl)carboxyamido-1-(4-methoxyphenyl)-3-methyluracil], the inhibition in vivo at 10 mg/kg [2, 7] is reported as 35%.
For CC(=O)Oc1cc(OC(C)=O)cc(C(=O)Nc2c(N)n(-c3ccccc3)c(=O)n(C)c2=O)c1 [Example 7, 6-Amino-5-(3,5-diacetoxyphenyl)carboxyamido-3-methyl-1-phenyluracil], the autopsy [3] was “no abnormality was observed”, the blood examination [3] was “no abnormality was observed” and the “death during the administration period” value [3] was “no rat died”. For the same compound, the urine examination [3] was “no abnormality was observed”, the weight change [3] was “no abnormality was observed” and the inhibition in vivo at 10 mg/kg [2, 7] was 65%.
CC(=O)Oc1cc(OC(C)=O)cc(C(=O)Nc2c(N)n(-c3ccc(F)cc3)c(=O)n(C)c2=O)c1 [Example 8, 6-Amino-5-(3,5-diacetoxyphenyl)carboxyamido-1-(4-fluorophenyl)-3-methyluracil] gave an inhibition in vivo at 10 mg/kg [2, 7] of 43%.
Compound CCCn1c(=O)c(NC(=O)c2cc(OC(C)=O)cc(OC(C)=O)c2)c(N)n(-c2ccccc2)c1=O [Example 11, 6-Amino-5-(3,5-diacetoxyphenyl)carboxyamido-1-phenyl-3-propyluracil] has an inhibition in vivo at 100 mg/kg [2, 8] of 30%.
Cn1c(=O)c(NC(=O)c2cc(O)cc(O)c2)c(N)n(-c2ccccc2)c1=O [Example 14, 6-Amino-5-(3,5-dihydroxyphenyl)carboxyamido-3-methyl-1-phenyluracil] gave an inhibition in vivo at 10 mg/kg [2, 7] of 45%.
With CC(=O)Oc1cc(C(=O)Nc2c(N)n(-c3ccccc3)c(=O)n(C)c2=O)cc(OC(C)=O)c1OC(C)=O [Example 22, 6-Amino-3-methyl-1-phenyl-5-(3,4,5-triacetoxyphenyl)carboxyamidouracil] the “Percent Inhibition” value [4] was 50%, the inhibition in vivo at 10 mg/kg [2, 7] was 48% and the inhibition in vivo at 100 mg/kg [2, 8] was 72%.
Compound CC(=O)Oc1ccc(C(=O)Nc2c(N)n(-c3ccccc3)c(=O)n(C)c2=O)cc1OC(C)=O [Example 34, 6-Amino-5-(3,4-diacetoxyphenyl)carboxyamido-3-methyl-1-phenyluracil] has an inhibition in vivo at 10 mg/kg [2, 7] of 33% and an inhibition in vivo at 100 mg/kg [2, 8] of 52%.
In the case of Cn1c(=O)c(NC(=O)c2cc(=O)cco2)c(N)n(-c2ccccc2)c1=O [Example 51, 6-Amino-3-methyl-5-(4-oxo-4H-pyran-2-yl)carboxyamido-1-phenyluracil], the inhibition in vivo at 10 mg/kg [2, 7] is reported as 45%.
Compound Cn1c(=O)c(NC(=O)c2ccc(=O)oc2)c(N)n(-c2ccccc2)c1=O [Example 52, 6-Amino-3-methyl-5-(2-oxo-2H-pyran-5-yl)carboxyamido-1-phenyluracil] has an inhibition in vivo at 10 mg/kg [2, 7] of 19% and an inhibition in vivo at 100 mg/kg [2, 8] of 39%.
With COc1ccc(O)c(C(=O)Nc2c(N)n(-c3ccccc3)c(=O)n(C)c2=O)c1 [Example 53, 6-Amino-5-(2-hydroxy-5-methoxyphenyl)carboxyamido-3-methyl-1-phenyluracil] the autopsy [3] was “no abnormality was observed”, the blood examination [3] was “no abnormality was observed” and the “death during the administration period” value [3] was “no rat died”. The urine examination [3] was “no abnormality was observed”, the weight change [3] was “no abnormality was observed” and the inhibition in vivo at 10 mg/kg [2, 7] was 45%.
Compound COc1ccc(-n2c(N)c(NC(=O)c3cc(OC)ccc3OC(C)=O)c(=O)n(C)c2=O)cc1 [Example 55, 5-(2-Acetoxy-5-methoxyphenyl)carboxyamido-6-amino-1-(4-methoxyphenyl)-3-methyluracil] has an inhibition in vivo at 100 mg/kg [2, 8] of 35%.
CC1CCC(C(=O)Nc2c(N)n(-c3ccccc3)c(=O)n(C)c2=O)CC1 (centres unmarked) [Example 60, 6-Amino-3-methyl-5-(4-methylcyclohexyl)carboxyamido-1-phenyluracil] showed an inhibition in vivo at 10 mg/kg [2, 7] of 40%.
In the case of Cn1c(=O)c(NC(=O)C2(C)CCCCC2)c(N)n(-c2ccccc2)c1=O [Example 61, 6-Amino-3-methyl-5-(1-methylcyclohexyl)carboxyamido-1-phenyluracil], the inhibition in vivo at 100 mg/kg [2, 8] is reported as 32%.
With Cn1c(=O)c2[nH]c(-c3cc(C(C)(C)C)c(O)c(C(C)(C)C)c3)nc2n(-c2ccccc2)c1=O [Example 74, 8-(3,5-Di-tert-butyl-4-hydroxyphenyl)-1-methyl-3-phenylpurine-2,6-dione] the “Percent Inhibition” value [5, 9] was 38%, the autopsy [6] was “no abnormality was observed” and the blood examination [6] was “no abnormality was observed”. For the same compound, the “death during the administration period” value [6] was “no rat died”, the urine examination [6] was “no abnormality was observed” and the weight change [6] was “no abnormality was observed”.
In the case of COc1ccc(-n2c(=O)n(C)c(=O)c3[nH]c(-c4cc(C(C)(C)C)c(O)c(C(C)(C)C)c4)nc32)cc1 [Example 75, 8-(3,5-Di-tert-butyl-4-hydroxyphenyl)-3-(4-methoxyphenyl)-1-methylpurine-2,6-dione], the “Percent Inhibition” value [5, 9] is reported as 16% and the “Percent Inhibition” value [5, 10] is reported as 34%.
With Cn1c(=O)c2[nH]c(-c3ccc(O)c(O)c3)nc2n(-c2ccccc2)c1=O [Example 78, 8-(3,4-Dihydroxyphenyl)-1-methyl-3-phenylpurine-2,6-dione] the “Percent Inhibition” value [5, 9] was 35%.
For CC(=O)Oc1cc(-c2nc3c([nH]2)c(=O)n(C)c(=O)n3-c2ccccc2)cc(OC(C)=O)c1OC(C)=O [Example 80, 1-Methyl-3-phenyl-8-(3,4,5-triacetoxyphenyl)purine-2,6-dione], the “Percent Inhibition” value [5, 9] was 37% and the “Percent Inhibition” value [5, 10] was 53%.
In the case of C[C@]12C=CC(=O)C=C1CC[C@@H]1[C@@H]2[C@@H](O)C[C@@]2(C)[C@H]1CC[C@]2(O)C(=O)CO [Prednisolone, prednisolone, reference compound], the “Percent Inhibition” value [5, 9] is reported as 67% and the inhibition in vivo at 10 mg/kg ([2]; 24 h) is reported as 77%.
With COc1ccc(/C=C/C(=O)Nc2ccccc2C(=O)O)cc1OC [Tranilast, tranilast, reference compound] the “Percent Inhibition” value ([1]; 100 mg/kg orally 1 hour before the induction) was 66% and the “Percent Inhibition” value [4] was 35%.

From patent US5661153A, “1-arylpyrimidine derivatives and pharmaceutical use thereof” (Japan Energy Corporation, priority 1994, dated 1997)
